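Protocol summary: plate cells (96-well), add compound at 5 concentrations, incubate 48 h, interpolate endpoints linearly. GI50 = concentration required for 50% inhibition of growth. TGI marks complete inhibition of growth.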
How the values were obtained:
Assay in all cases: NCI tumour cell line growth inhibition, 48 h
T-47D breast = system: T-47D breast
OVCAR-5 ovarian = system: OVCAR-5 ovarian
COLO 205 colon = system: COLO 205 colon
SNB-19 CNS = system: SNB-19 CNS
NCI-H226 lung = system: NCI-H226 lung
DU-145 prostate = system: DU-145 prostate
UO-31 renal = system: UO-31 renal
ACHN renal = system: ACHN renal
RPMI-8226 leukemia = system: RPMI-8226 leukemia
NCI-H522 lung = system: NCI-H522 lung
M14 melanoma = system: M14 melanoma
MDA-MB-231 breast = system: MDA-MB-231 breast
HOP-62 NSCLC = system: HOP-62 NSCLC
HCT-116 colon = system: HCT-116 colon
K-562 leukemia = system: K-562 leukemia
SF-295 CNS = system: SF-295 CNS
HL-60(TB) leukemia = system: HL-60(TB) leukemia
KM12 colon = system: KM12 colon
CAKI-1 renal = system: CAKI-1 renal
OVCAR-4 ovarian = system: OVCAR-4 ovarian
CCRF-CEM leukemia = system: CCRF-CEM leukemia
UACC-62 melanoma = system: UACC-62 melanoma
SF-539 CNS = system: SF-539 CNS
786-0 renal = system: 786-0 renal
SF-268 CNS = system: SF-268 CNS
U251 CNS = system: U251 CNS
HS 578T breast = system: HS 578T breast
A498 renal = system: A498 renal
SK-MEL-28 melanoma = system: SK-MEL-28 melanoma
NCI/ADR-RES ovarian = system: NCI/ADR-RES ovarian
SN12C renal = system: SN12C renal
SK-OV-3 ovarian = system: SK-OV-3 ovarian
MALME-3M melanoma = system: MALME-3M melanoma
SW-620 colon = system: SW-620 colon
NCI-H23 lung = system: NCI-H23 lung
IGROV1 ovarian = system: IGROV1 ovarian
HOP-92 NSCLC = system: HOP-92 NSCLC
SK-MEL-2 melanoma = system: SK-MEL-2 melanoma
OVCAR-8 ovarian = system: OVCAR-8 ovarian
LOX IMVI melanoma = system: LOX IMVI melanoma
UACC-257 melanoma = system: UACC-257 melanoma
RXF 393 renal = system: RXF 393 renal
MOLT-4 leukemia = system: MOLT-4 leukemia
HCT-15 colon = system: HCT-15 colon
MDA-MB-435 = system: MDA-MB-435
NCI-H460 lung = system: NCI-H460 lung
SK-MEL-5 melanoma = system: SK-MEL-5 melanoma
EKVX NSCLC = system: EKVX NSCLC
A549 NSCLC = system: A549 NSCLC
HT29 colon = system: HT29 colon
TK-10 renal = system: TK-10 renal
SNB-75 CNS = system: SNB-75 CNS
MCF7 breast = system: MCF7 breast
BT-549 breast = system: BT-549 breast
OVCAR-3 ovarian = system: OVCAR-3 ovarian
PC-3 prostate = system: PC-3 prostate
HCC-2998 colon = system: HCC-2998 colon

With `O=C(N[C@@H](c1ccc(Cl)c(Cl)c1)C1CNC1)c1ccc2cnccc2c1` the GI50 (T-47D breast) was 59.1 nM, the TGI (T-47D breast) was 3570 nM and the GI50 (OVCAR-5 ovarian) was 340 nM. For the same molecule, the TGI (OVCAR-5 ovarian) was 14200 nM, the GI50 (COLO 205 colon) was 194 nM and the TGI (COLO 205 colon) was 1290 nM. For the same molecule, the GI50 (SNB-19 CNS) was 649 nM, the TGI (SNB-19 CNS) was 10700 nM and the GI50 (NCI-H226 lung) was 626 nM. It also gave a TGI (NCI-H226 lung) of 5430 nM, a GI50 (DU-145 prostate) of 644 nM and a TGI (DU-145 prostate) of 13200 nM. The GI50 (UO-31 renal) was 543 nM, the TGI (UO-31 renal) was 10000 nM and the GI50 (ACHN renal) was 904 nM. It also gave a TGI (ACHN renal) of 12000 nM, a GI50 (RPMI-8226 leukemia) of 1560 nM and a TGI (RPMI-8226 leukemia) of 8870 nM. It also gave a GI50 (NCI-H522 lung) of 721 nM, a TGI (NCI-H522 lung) of 9200 nM and a GI50 (M14 melanoma) of 343 nM. The TGI (M14 melanoma) was 8400 nM, the GI50 (MDA-MB-231 breast) was 639 nM and the TGI (MDA-MB-231 breast) was 15000 nM. The GI50 (HOP-62 NSCLC) was 340 nM, the TGI (HOP-62 NSCLC) was 11500 nM and the GI50 (HCT-116 colon) was 330 nM. For the same molecule, the TGI (HCT-116 colon) was 10400 nM, the GI50 (K-562 leukemia) was 3200 nM and the TGI (K-562 leukemia) was > 40300 nM. The GI50 (SF-295 CNS) was 91.4 nM, the TGI (SF-295 CNS) was 1210 nM and the GI50 (HL-60(TB) leukemia) was 534 nM. The TGI (HL-60(TB) leukemia) was 3890 nM, the GI50 (KM12 colon) was 314 nM and the TGI (KM12 colon) was 4440 nM. For the same molecule, the GI50 (CAKI-1 renal) was 68 nM, the TGI (CAKI-1 renal) was 2270 nM and the GI50 (OVCAR-4 ovarian) was 1800 nM. The TGI (OVCAR-4 ovarian) was 12700 nM, the GI50 (CCRF-CEM leukemia) was 189 nM and the TGI (CCRF-CEM leukemia) was 14600 nM. For the same molecule, the GI50 (UACC-62 melanoma) was 171 nM, the TGI (UACC-62 melanoma) was 866 nM and the GI50 (SF-539 CNS) was 40.8 nM. The TGI (SF-539 CNS) was 798 nM, the GI50 (786-0 renal) was 67.6 nM and the TGI (786-0 renal) was 2340 nM. It also gave a GI50 (SF-268 CNS) of 924 nM, a TGI (SF-268 CNS) of 3160 nM and a GI50 (U251 CNS) of 475 nM. It also gave a TGI (U251 CNS) of 4260 nM, a GI50 (HS 578T breast) of 25.6 nM and a TGI (HS 578T breast) of 483 nM. The GI50 (A498 renal) was 157 nM, the TGI (A498 renal) was 1360 nM and the GI50 (SK-MEL-28 melanoma) was 301 nM. For the same molecule, the TGI (SK-MEL-28 melanoma) was 3430 nM, the GI50 (NCI/ADR-RES ovarian) was 12100 nM and the TGI (NCI/ADR-RES ovarian) was 27100 nM. The GI50 (SN12C renal) was 715 nM, the TGI (SN12C renal) was 7450 nM and the GI50 (SK-OV-3 ovarian) was 239 nM. The TGI (SK-OV-3 ovarian) was 6860 nM, the GI50 (MALME-3M melanoma) was 138 nM and the TGI (MALME-3M melanoma) was 700 nM. It also gave a GI50 (SW-620 colon) of 410 nM, a TGI (SW-620 colon) of 12300 nM and a GI50 (NCI-H23 lung) of 336 nM. It also gave a TGI (NCI-H23 lung) of 10800 nM, a GI50 (IGROV1 ovarian) of 32.4 nM and a TGI (IGROV1 ovarian) of 4690 nM. The GI50 (HOP-92 NSCLC) was 44.4 nM, the TGI (HOP-92 NSCLC) was 3340 nM and the GI50 (SK-MEL-2 melanoma) was 520 nM. For the same molecule, the TGI (SK-MEL-2 melanoma) was 3060 nM, the GI50 (OVCAR-8 ovarian) was 1450 nM and the TGI (OVCAR-8 ovarian) was 5070 nM. It also gave a GI50 (LOX IMVI melanoma) of 716 nM, a TGI (LOX IMVI melanoma) of 3710 nM and a GI50 (UACC-257 melanoma) of 490 nM. For the same molecule, the TGI (UACC-257 melanoma) was 4840 nM, the GI50 (RXF 393 renal) was 23 nM and the TGI (RXF 393 renal) was 191 nM. The GI50 (MOLT-4 leukemia) was 106 nM, the TGI (MOLT-4 leukemia) was 6180 nM and the GI50 (HCT-15 colon) was 1600 nM. It also gave a TGI (HCT-15 colon) of 12000 nM, a GI50 (MDA-MB-435) of 216 nM and a TGI (MDA-MB-435) of 3810 nM. The GI50 (NCI-H460 lung) was 214 nM, the TGI (NCI-H460 lung) was 11000 nM and the GI50 (SK-MEL-5 melanoma) was 2850 nM. The TGI (SK-MEL-5 melanoma) was 12100 nM, the GI50 (EKVX NSCLC) was 288 nM and the TGI (EKVX NSCLC) was 16900 nM. For the same molecule, the GI50 (A549 NSCLC) was 417 nM, the TGI (A549 NSCLC) was 12500 nM and the GI50 (HT29 colon) was 206 nM. It also gave a TGI (HT29 colon) of 12100 nM, a GI50 (TK-10 renal) of 133 nM and a TGI (TK-10 renal) of 3090 nM. For the same molecule, the GI50 (SNB-75 CNS) was < 12.5 nM, the TGI (SNB-75 CNS) was 264 nM and the GI50 (MCF7 breast) was 200 nM. For the same molecule, the TGI (MCF7 breast) was 1590 nM, the GI50 (BT-549 breast) was 301 nM and the TGI (BT-549 breast) was 1670 nM. The GI50 (OVCAR-3 ovarian) was 1560 nM, the TGI (OVCAR-3 ovarian) was 13200 nM and the GI50 (PC-3 prostate) was 486 nM. For the same molecule, the TGI (PC-3 prostate) was 17200 nM, the GI50 (HCC-2998 colon) was 246 nM and the TGI (HCC-2998 colon) was 3510 nM.

Reference: PubChem BioAssay (NCI)
